Source: patent publication US10717734B2, “Indole and azaindole haloallylamine derivative inhibitors of lysyl oxidases and uses thereof” (PHARMAXIS LTD., priority 2016, dated 2020)
Counter-ions that a name gives are not always drawn.

Columns and labels:
Assay type in all cases: biochemical
Human LOXL2 = Human LOXL2 (Homo sapiens (Human), UniProt Q9Y4K0); assay: LOXL2 inhibition, peroxidase-coupled Amplex Red amine oxidase assay; details: 30 min preincubation at 37° C., putrescine substrate
From the text: (§1) Method to Determine the Ability of Compounds of the Invention to Inhibit LOX and LOXL1-4 from Different Sources
(§2) Lysyl oxidase (LOX) is an extracellular copper dependent enzyme which oxidizes peptidyl lysine and hydroxylysine residues in collagen and lysine residues in elastin to produce peptidyl alpha-aminoadipic-delta-semialdehydes. […] There are five LOX family members; these are LOX, LOXL1, LOXL2, LOXL3 and LOXL4. LOX and LOXL family members can be acquired as recombinant active proteins from commercial sources, or extracted from animal tissues like bovine aorta, tendons, pig skin; or prepared from cell cultures. The inhibitory effects of the compounds of the present invention were tested against the given LOX-LOXL preparation using a high-throughput coupled colorimetric method (Holt A. and Palcic M., A peroxidase-coupled continuous absorbance plate-reader assay for flavin monoamine oxidases, copper-containing amine oxidases and related enzymes. Nat. Protoc. 2006; 1: 2498-2505). The assay was developed using either 384 or 96 well format. Briefly, in a standard 384 well plate assay 25 μL of a dilution of any of the isoenzymes and orthologues in 1.2 M urea, 50 mM sodium borate buffer (pH 8.2) were added into each well in the presence of 1 μM mofegiline and 0.5 mM pargyline (to inhibit SSAO and MAO-B and MAO-A, respectively). Test compounds were dissolved in DMSO and tested in a Concentration Response Curve (CRC) with 11 data points, typically in the micromolar or nanomolar range after incubation with the enzyme for 30 min at 37° C. Twenty five μL of a reaction mixture containing twice the KM concentration of putrescine (Sigma Aldrich, e.g. 20 mM for LOX, or 10 mM for LOXL2 and LOXL3), 120 μM Amplex Red (Sigma Aldrich) and 1.5 U/mL horseradish peroxidase (Sigma Aldrich) prepared in 1.2 M urea, 50 mM sodium borate buffer (pH 8.2) were then added to the corresponding wells. The above volumes were doubled in the case of 96 wells plate. The fluorescence (RFU) was read every 2.5 min for 30 min at a range of temperatures from 37° to 45° C., excitation 565 nm and emission 590 (Optima; BMG labtech). The slope of the kinetics for each well was calculated using MARS data analysis software (BMG labtech) and this value was used to deduce the IC50 value (Dotmatics).

Recombinant human MAO-B = Recombinant human MAO-B (Homo sapiens (Human), UniProt P27338); assay: Human recombinant MAO-B inhibition; details: benzylamine 100 μM
Sequence of Recombinant human MAO-B (P27338 whole entry): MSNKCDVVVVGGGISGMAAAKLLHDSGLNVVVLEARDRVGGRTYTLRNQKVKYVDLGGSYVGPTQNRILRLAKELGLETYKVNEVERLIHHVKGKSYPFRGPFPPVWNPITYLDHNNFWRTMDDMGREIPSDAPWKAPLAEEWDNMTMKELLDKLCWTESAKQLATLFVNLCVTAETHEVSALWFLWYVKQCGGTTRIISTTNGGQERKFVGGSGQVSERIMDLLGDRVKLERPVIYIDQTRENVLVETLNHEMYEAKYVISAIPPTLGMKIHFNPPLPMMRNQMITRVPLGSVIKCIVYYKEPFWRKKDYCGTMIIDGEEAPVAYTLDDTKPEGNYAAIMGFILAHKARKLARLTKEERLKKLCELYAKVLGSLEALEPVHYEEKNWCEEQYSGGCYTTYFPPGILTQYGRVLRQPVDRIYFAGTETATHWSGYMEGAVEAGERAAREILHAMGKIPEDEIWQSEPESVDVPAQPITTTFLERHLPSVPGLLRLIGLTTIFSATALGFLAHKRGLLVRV
Description: Method to Determine the Ability of Compounds of Formula I to Inhibit Human Recombinant MAO-B
The specificity of the compounds of this invention was tested by determining their ability to inhibit MAO-B activities in vitro. Recombinant human MAO-B (0.06 mg/mL; Sigma Aldrich) was used as source of MAO-B enzyme activities. The assay was performed in a similar way as for human SSAO/VAP-1 (Example 36) except, the substrate benzylamine was used at 100 μM.

Bovine LOX = Bovine LOX (Bos taurus (Bovine), UniProt P33072); assay: LOX inhibition, peroxidase-coupled Amplex Red amine oxidase assay; details: 30 min preincubation at 37° C., putrescine substrate
Sequence of Bovine LOX (P33072 170-418): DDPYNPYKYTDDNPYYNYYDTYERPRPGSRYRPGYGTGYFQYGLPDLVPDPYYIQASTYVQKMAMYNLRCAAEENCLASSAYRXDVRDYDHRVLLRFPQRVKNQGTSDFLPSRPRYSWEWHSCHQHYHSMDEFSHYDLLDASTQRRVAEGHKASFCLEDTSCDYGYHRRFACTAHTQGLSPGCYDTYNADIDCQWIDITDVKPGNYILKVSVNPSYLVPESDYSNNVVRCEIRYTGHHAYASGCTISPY
From the text: as §1
as §2, with “Test compounds were dissolved in DMSO and tested in a Concentration Response Curve (CRC) with 11 data points, typically in the micromolar or nanomolar range after incubation with the enzyme for 30 min at 37° C.” left out

[1] = target: Human recombinant SSAO/VAP-1 (Homo sapiens (Human), UniProt Q16853); assay: Human recombinant SSAO/VAP-1 amine oxidase inhibition; details: 30 min preincubation at 37° C., 600 μM benzylamine
Sequence of Human recombinant SSAO/VAP-1 (Q16853 34-763): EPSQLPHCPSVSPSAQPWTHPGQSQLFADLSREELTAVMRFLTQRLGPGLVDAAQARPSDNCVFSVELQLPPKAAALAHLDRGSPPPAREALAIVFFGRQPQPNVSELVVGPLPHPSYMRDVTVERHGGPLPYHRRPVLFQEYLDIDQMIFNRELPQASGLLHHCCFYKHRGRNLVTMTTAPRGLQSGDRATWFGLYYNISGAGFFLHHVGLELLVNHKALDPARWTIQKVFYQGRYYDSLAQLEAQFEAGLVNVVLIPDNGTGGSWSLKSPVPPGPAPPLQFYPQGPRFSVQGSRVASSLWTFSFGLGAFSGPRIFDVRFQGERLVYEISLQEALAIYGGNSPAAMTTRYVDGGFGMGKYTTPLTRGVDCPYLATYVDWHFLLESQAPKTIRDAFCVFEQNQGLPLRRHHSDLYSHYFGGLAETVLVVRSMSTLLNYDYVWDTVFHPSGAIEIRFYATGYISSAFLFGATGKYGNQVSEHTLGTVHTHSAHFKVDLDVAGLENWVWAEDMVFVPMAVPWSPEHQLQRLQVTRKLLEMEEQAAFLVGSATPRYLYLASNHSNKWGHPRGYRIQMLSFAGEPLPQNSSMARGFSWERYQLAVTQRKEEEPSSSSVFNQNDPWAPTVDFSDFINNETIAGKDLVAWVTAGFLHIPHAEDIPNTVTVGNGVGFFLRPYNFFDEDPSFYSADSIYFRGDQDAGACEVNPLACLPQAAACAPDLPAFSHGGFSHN
Description: Method to Determine the Ability of Compounds of Formula I to Inhibit Human Recombinant SSAO/VAP-1
Human recombinant SSAO/VAP-1 amine oxidase activity was determined using the coupled colorimetric method as described for monoamine oxidase, copper-containing amine oxidases and related enzymes (Holt A. and Palcic M., A peroxidase-coupled continuous absorbance plate-reader assay for flavin monoamine oxidases, copper-containing amine oxidases and related enzymes. Nat Protoc 2006; 1: 2498-2505). Briefly, a cloned cDNA template corresponding to residues 34-763 of human SSAO/VAP-1, and incorporating a mouse Ig kappa (κ) signal sequence, N-terminal flag epitope tag and tobacco etch virus (TEV) cleavage site, was assembled in a mammalian expression vector (pLO-CMV) by Geneart AG. This vector containing human SSAO/VAP-1 residues was transfected into CHO-K1 glycosylation mutant cell line, Lec 8. A clone stably expressing human SSAO/VAP-1 was isolated and cultured in large scale. Active human SSAO/VAP-1 was purified and recovered using immunoaffinity chromatography. This was used as the source for SSAO/VAP-1 activity. A high-throughput colorimetric assay was developed using either 96 or 384 well format. Briefly, in a standard 96 well plate assay 50 μL of purified human SSAO/VAP-1 (0.25 μg/mL) in 0.1 M sodium phosphate buffer (pH 7.4) was added into each well. Test compounds were dissolved in DMSO and tested in a Concentration Response Curve (CRC) with 4-11 data points, typically in the micromolar or nanomolar range after incubation with human SSAO/VAP-1 for 30 min at 37° C. After 30 min incubation, 50 μL of the reaction mixture containing 600 μM benzylamine (Sigma Aldrich), 120 μM Amplex Red (Sigma Aldrich) and 1.5 U/mL horseradish peroxidase (Sigma Aldrich) prepared in 0.1 M sodium phosphate buffer (pH 7.4) were added to the corresponding well. The fluorescence unit (RFU) was read every 2.5 min for 30 min at 37° C. excitation 565 nm and emission 590 (Optima; BMG labtech). The slope of the kinetics for each well was calculated using MARS data analysis software (BMG labtech) and this value was used to deduce the IC50 value (Dotmatics).

Sequence of Human LOXL2 (Q9Y4K0 26-774): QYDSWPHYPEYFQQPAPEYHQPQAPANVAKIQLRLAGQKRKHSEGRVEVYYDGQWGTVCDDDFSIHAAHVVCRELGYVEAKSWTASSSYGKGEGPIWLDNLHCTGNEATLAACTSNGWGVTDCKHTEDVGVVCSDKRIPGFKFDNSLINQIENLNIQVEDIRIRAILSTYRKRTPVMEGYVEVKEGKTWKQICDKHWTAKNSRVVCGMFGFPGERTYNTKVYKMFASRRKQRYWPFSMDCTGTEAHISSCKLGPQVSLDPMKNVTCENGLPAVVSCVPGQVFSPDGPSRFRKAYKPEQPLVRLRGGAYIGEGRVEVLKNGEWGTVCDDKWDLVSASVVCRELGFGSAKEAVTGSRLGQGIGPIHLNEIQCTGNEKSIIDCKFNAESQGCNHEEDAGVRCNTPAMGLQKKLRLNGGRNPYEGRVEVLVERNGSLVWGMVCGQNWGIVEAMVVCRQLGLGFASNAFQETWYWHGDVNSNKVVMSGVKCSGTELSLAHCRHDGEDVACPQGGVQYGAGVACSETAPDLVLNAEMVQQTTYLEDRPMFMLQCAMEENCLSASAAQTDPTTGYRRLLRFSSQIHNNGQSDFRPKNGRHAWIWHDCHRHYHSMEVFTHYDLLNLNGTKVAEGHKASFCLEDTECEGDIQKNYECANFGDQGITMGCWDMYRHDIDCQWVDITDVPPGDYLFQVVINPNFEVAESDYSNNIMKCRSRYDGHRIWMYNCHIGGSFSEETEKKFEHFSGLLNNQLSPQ

Compound	IC50 (Human LOXL2)	IC50 (Recombinant human MAO-B)	IC50 (Bovine LOX)	IC50 [1]
Cc1c(Cc2ccc(S(=O)(=O)N(C)C)cc2)c2cc(C(=O)O)ccc2n1C/C(F)=C/CN [Compound 1, (Z)-1-(4-amino-2-fluorobut-2-en-1-yl)-3-(4-(N,N-dimethylsulfamoyl)benzyl)-2-methyl-1H-indole-5-carboxylic acid hydrochloride]	< 0.3 µM	> 3 µM	> 0.3 µM	> 3 µM
COC(=O)c1ccc2c(c1)c(Cc1ccc(S(=O)(=O)N(C)C)cc1)c(C)n2C/C(F)=C/CN [Compound 2, Methyl (Z)-1-(4-amino-2-fluorobut-2-en-1-yl)-3-(4-(N,N-dimethylsulfamoyl)benzyl)-2-methyl-1H-indole-5-carboxylate hydrochloride]	< 0.3 µM	> 3 µM	> 0.3 µM	> 3 µM
Cc1c(Cc2ccc(S(=O)(=O)N(C)C)cc2)c2cc(C(=O)N(C)C)ccc2n1C/C(F)=C/CN [Compound 3, (Z)-1-(4-amino-2-fluorobut-2-en-1-yl)-3-(4-(N,N-dimethylsulfamoyl)benzyl)-N,N,2-trimethyl-1H-indole-5-carboxamide hydrochloride]	< 0.3 µM	> 3 µM	> 0.3 µM	> 3 µM
Cc1c(Cc2ccc(S(=O)(=O)N(C)C)cc2)c2cc(C(N)=O)ccc2n1C/C(F)=C/CN [Compound 4, (Z)-1-(4-amino-2-fluorobut-2-en-1-yl)-3-(4-(N,N-dimethylsulfamoyl)benzyl)-2-methyl-1H-indole-5-carboxamide hydrochloride]	< 0.3 µM	> 3 µM	> 0.3 µM	> 3 µM
CN(C)C(=O)c1c(Cc2ccc(S(=O)(=O)N(C)C)cc2)c2ccccc2n1C/C(F)=C/CN [Compound 5, (Z)-1-(4-amino-2-fluorobut-2-en-1-yl)-3-(4-(N,N-dimethylsulfamoyl)benzyl)-N,N-dimethyl-1H-indole-2-carboxamide hydrochloride]	< 0.3 µM	> 3 µM	> 0.3 µM	> 3 µM
Cc1c(Cc2ccc(S(=O)(=O)N(C)C)cc2)c2cc(S(=O)(=O)N(C)C)ccc2n1C/C(F)=C/CN [Compound 6, (Z)-1-(4-amino-2-fluorobut-2-en-1-yl)-3-(4-(N,N-dimethylsulfamoyl)benzyl)-N,N,2-trimethyl-1H-indole-5-sulfonamide hydrochloride]	< 0.3 µM	> 3 µM	> 0.3 µM	> 3 µM
Cc1c(Cc2cccc(S(=O)(=O)N(C)C)c2)c2cc(S(=O)(=O)N(C)C)ccc2n1C/C(F)=C/CN [Compound 7, (Z)-1-(4-amino-2-fluorobut-2-en-1-yl)-3-(3-(N,N-dimethylsulfamoyl)benzyl)-N,N,2-trimethyl-1H-indole-5-sulfonamide hydrochloride]	< 0.3 µM	> 3 µM	> 0.3 µM	> 3 µM
Cc1c(Cc2ccc(S(=O)(=O)N(C)C)cc2)c2ncccc2n1C/C(F)=C/CN [Compound 8, (Z)-4-((1-(4-amino-2-fluorobut-2-en-1-yl)-2-methyl-1H-pyrrolo[3,2-b]pyridin-3-yl)methyl)-N,N-dimethylbenzenesulfonamide dihydrochloride]	< 0.3 µM	> 3 µM	> 0.3 µM	> 3 µM
Cc1ccc2c(n1)c(Cc1ccc(S(=O)(=O)N(C)C)cc1)c(C)n2C/C(F)=C/CN [Compound 9, (Z)-4-((1-(4-amino-2-fluorobut-2-en-1-yl)-2,5-dimethyl-1H-pyrrolo[3,2-b]pyridin-3-yl)methyl)-N,N-dimethylbenzenesulfonamide dihydrochloride]	< 0.3 µM	> 3 µM	> 0.3 µM	> 3 µM
Cc1c(Cc2ccc(S(C)(=O)=O)cc2)c2ncccc2n1C/C(F)=C/CN [Compound 10, (Z)-3-fluoro-4-(2-methyl-3-(4-(methylsulfonyl)benzyl)-1H-pyrrolo[3,2-b]pyridin-1-yl)but-2-en-1-amine dihydrochloride]	< 0.3 µM	> 3 µM	> 0.3 µM	> 3 µM
Cc1cnc2c(Cc3ccc(S(=O)(=O)N(C)C)cc3)c(C)n(C/C(F)=C/CN)c2c1 [Compound 11, (Z)-4-((1-(4-amino-2-fluorobut-2-en-1-yl)-2,6-dimethyl-1H-pyrrolo[3,2-b]pyridin-3-yl)methyl)-N,N-dimethylbenzenesulfonamide dihydrochloride]	< 0.3 µM	> 3 µM	> 0.3 µM	> 3 µM
CCS(=O)(=O)c1ccc(Cc2c(C(C)C)n(C/C(F)=C/CN)c3cccnc23)cn1 [Compound 43, (Z)-4-(3-((6-(ethylsulfonyl)pyridin-3-yl)methyl)-2-isopropyl-1H-pyrrolo[3,2-b]pyridin-1-yl)-3-fluorobut-2-en-1-amine dihydrochloride]	< 0.3 µM		> 0.3 µM	
CC(C)c1c(Cc2ccc(S(=O)(=O)C3CC3)nc2)c2ncccc2n1C/C(F)=C/CN [Compound 44, (Z)-4-(3-((6-(cyclopropylsulfonyl)pyridin-3-yl)methyl)-2-isopropyl-1H-pyrrolo[3,2-b]pyridin-1-yl)-3-fluorobut-2-en-1-amine dihydrochloride]	< 0.3 µM		> 0.3 µM	
